Measured values from ChEMBL document CHEMBL1138899, “Acyclic nucleoside analogues as inhibitors of Plasmodium falciparum dUTPase” (J Med Chem, 2006).

Experiments:
[1] = target: T1, Deoxyuridine 5'-triphosphate nucleotidohydrolase, mitochondrial (Homo sapiens, UniProt P33316); assay: Inhibition of human recombinant dUTPase
T1 sequence (P33316 whole entry): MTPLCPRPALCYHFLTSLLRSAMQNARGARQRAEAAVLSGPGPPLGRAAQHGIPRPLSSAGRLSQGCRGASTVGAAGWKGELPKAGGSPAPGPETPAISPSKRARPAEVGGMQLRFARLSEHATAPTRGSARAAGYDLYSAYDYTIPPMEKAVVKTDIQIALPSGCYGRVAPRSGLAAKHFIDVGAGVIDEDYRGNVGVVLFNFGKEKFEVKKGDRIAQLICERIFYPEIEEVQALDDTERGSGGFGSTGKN

L6 = assay: Cytotoxicity against rat L6 cells; format: functional, cell-based
Plasmodium falciparum = assay: Antiplasmodial activity against Plasmodium falciparum; format: functional, organism-based
dUTP pyrophosphatase = target: T2, dUTP pyrophosphatase (Plasmodium falciparum 3D7, UniProt Q8II92); assay: Inhibition of Plasmodium falciparum dUTPase
T2 sequence (Q8II92 whole entry): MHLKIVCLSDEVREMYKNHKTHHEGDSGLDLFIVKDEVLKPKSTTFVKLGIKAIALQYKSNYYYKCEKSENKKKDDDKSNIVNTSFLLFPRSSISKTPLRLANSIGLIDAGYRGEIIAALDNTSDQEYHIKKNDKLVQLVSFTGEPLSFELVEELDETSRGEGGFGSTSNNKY

[2] = target: T3, dUTP pyrophosphatase (Plasmodium falciparum 3D7) (UniProt Q8II92); assay: Selectivity index, human dUTPase/Plasmodium falciparum dUTPase
T3 sequence (whole entry): T2 sequence (Q8II92 whole entry)

[3] = Intrinsic clearance in human liver microsome; format: ADME; settings: liver microsomes
[4] = Stability in simulated gastric fluid after 5 mins; format: ADME; settings: read-out: Stability
[5] = Stability in simulated gastric fluid after 0.2 mins; format: ADME; settings: read-out: Stability
[6] = Stability in simulated gastric fluid after 150 mins; format: ADME; settings: read-out: Stability

Row | Ki [1] [µM] | IC50 (Plasmodium falciparum) [µM] | Ki (dUTP pyrophosphatase) [µM] | remaining at 2.5 h [6] [%] | SMILES | IC50 (L6) [µM] | Selectivity index [2] | microsomal CLint [3] [µL/min/mg] | remaining at 5 min [4] [%] | remaining at 12 s [5] [%]
1 | 21 | 1.9 | 0.9 | – | O=c1ccn(CC(CCO)COC(c2ccccc2)(c2ccccc2)c2ccccc2)c(=O)[nH]1 (configuration not stated) | 57 | – | – | – | –
2 | 74 | 2.8 | 1.3 | – | CC(=O)OCC(CCn1ccc(=O)[nH]c1=O)CNC(c1ccccc1)(c1ccccc1)c1ccccc1 (configuration not stated) | 37 | – | – | – | –
3 | 63 | 62 | 44 | – | CC(C)(C)[Si](C)(C)OCCOCn1ccc(=O)[nH]c1=O | > 299 | 1.4 | – | – | –
4 | > 1000 | 12 | > 1000 | – | OC(c1ccccc1)(c1ccccc1)c1ccccc1 [TRIPHENYLMETHANOL] | – | – | – | – | –
5 | > 1000 | 20 | > 1000 | – | O=c1ccn(CCCCCO)c(=O)[nH]1 | > 454 | – | – | – | –
6 | 17 | 0.9 | 0.7 | – | O=c1ccn(COCCOC(c2ccccc2)(c2ccccc2)c2ccccc2)c(=O)[nH]1 | 39 | 25 | 96 | – | –
7 | > 1000 | 3.8 | – | 94 | O=c1ccn(CCCCNC(c2ccccc2)(c2ccccc2)c2ccccc2)c(=O)[nH]1 | 33 | > 1110 | 64 | – | –
8 | 496 | 38 | 224 | – | O=C(OCCCCn1ccc(=O)[nH]c1=O)c1ccccc1 | – | 2 | – | – | –
9 | > 1000 | 0.64 | 23 | – | [N-]=[N+]=NCC(CCOC(c1ccccc1)(c1ccccc1)c1ccccc1)Cn1ccc(=O)[nH]c1=O (configuration not stated) | 18 | – | – | – | –
10 | > 1000 | 3.9 | 8.5 | – | CC(C)(C)[Si](OCCCCCCn1ccc(=O)[nH]c1=O)(c1ccccc1)c1ccccc1 | 18 | > 118 | – | – | –
11 | > 1000 | 3.4 | 32 | – | O=C(OCCCCCCn1ccc(=O)[nH]c1=O)c1ccccc1 | – | > 31 | – | – | –
12 | 311 | 127 | 98 | – | O=C(OCCOCn1ccc(=O)[nH]c1=O)c1ccccc1 | 202 | 3 | – | – | –
13 | > 1000 | > 29 | 368 | – | O=c1ccn(CCCO)c(=O)[nH]1 | – | > 2 | – | – | –
14 | 260 | 1.2 | 2.2 | – | O=c1ccn(CC(CO)CCOC(c2ccccc2)(c2ccccc2)c2ccccc2)c(=O)[nH]1 (configuration not stated) | 33 | – | – | – | –
15 | > 1000 | 3.7 | 0.6 | – | O=c1ccn(C/C=C/COC(c2ccccc2)(c2ccccc2)c2ccccc2)c(=O)[nH]1 | 34 | > 1670 | – | – | –
16 | > 1000 | 235 | > 1000 | – | O=c1ccn(CCCCO)c(=O)[nH]1 | – | – | – | – | –
17 | > 1000 | 0.9 | 2.5 | – | CC(C)(C)OC(=O)NCC(CCn1ccc(=O)[nH]c1=O)COC(c1ccccc1)(c1ccccc1)c1ccccc1 (configuration not stated) | – | – | – | – | –
18 | 898 | > 18 | 9.2 | – | O=C(OCCCn1ccc(=O)[nH]c1=O)c1ccccc1 | – | > 97 | – | – | –
19 | 5.2 | 3.5 | 1.2 | – | O=c1ccn(C/C=C\COC(c2ccccc2)(c2ccccc2)c2ccccc2)c(=O)[nH]1 | 39 | 4 | – | – | –
20 | > 1000 | 15 | 17 | – | O=C(NCCCCn1ccc(=O)[nH]c1=O)OCc1ccccc1 | – | > 60 | – | – | –
21 | 5.7 | 3.2 | 0.24 | – | O=c1ccn(CCC(CO)CNC(c2ccccc2)(c2ccccc2)c2ccccc2)c(=O)[nH]1 (configuration not stated) | 55 | – | – | – | –
22 | 457 | 2 | – | – | O=c1ccn([C@H]2C[C@H](F)[C@@H](COC(c3ccccc3)(c3ccccc3)c3ccccc3)O2)c(=O)[nH]1 | – | – | – | – | –

The remaining lines, values behind:

Row | SMILES | Ki [1] [µM] | IC50 (Plasmodium falciparum) [µM] | Ki (dUTP pyrophosphatase) [µM] | remaining at 2.5 h [6] [%] | IC50 (L6) [µM] | Selectivity index [2] | microsomal CLint [3] [µL/min/mg] | remaining at 5 min [4] [%] | remaining at 12 s [5] [%]
23 | O=c1ccn(CCCCCOC(c2ccccc2)(c2ccccc2)c2ccccc2)c(=O)[nH]1 | > 1000 | 1.1 | 2 | – | 24 | > 500 | – | – | –
24 | CC(C)(C)OC(=O)NCCCCn1ccc(=O)[nH]c1=O | > 1000 | 17 | 112 | – | – | > 8 | – | – | –
25 | O=c1ccn([C@H]2C[C@H](O)[C@@H](CO[Si](c3ccccc3)(c3ccccc3)c3ccccc3)O2)c(=O)[nH]1 | – | 1.1 | – | – | – | – | – | – | –
26 | CC(C)(C)[Si](C)(C)O | – | > 37 | – | – | > 680 | – | – | – | –
27 | O=c1ccn(CCCCCCNC(c2ccccc2)(c2ccccc2)c2ccccc2)c(=O)[nH]1 | > 1000 | 1.1 | 1.8 | – | 40 | > 543 | – | – | –
28 | O=c1ccn(CCCCOC(c2ccccc2)(c2ccccc2)c2ccccc2)c(=O)[nH]1 | > 1000 | 4.9 | 1.6 | – | 42 | > 617 | 68 | 2 | –
29 | O=c1ccn(CCCNC(c2ccccc2)(c2ccccc2)c2ccccc2)c(=O)[nH]1 | 1.4 | 4.4 | 0.2 | – | 107 | 7 | – | – | –
30 | CC(C)(C)[Si](C)(C)OCCCn1ccc(=O)[nH]c1=O | 73 | > 18 | 73 | – | 192 | 1 | – | – | –
31 | O=c1ccn(CCCCO[Si](c2ccccc2)(c2ccccc2)c2ccccc2)c(=O)[nH]1 | > 1000 | 0.36 | 2.2 | – | – | > 446 | 69 | – | < 2
32 | O[Si](c1ccccc1)(c1ccccc1)c1ccccc1 | > 1000 | 0.65 | > 1000 | – | 138 | – | – | – | –
33 | O=c1ccn(CCCCCCOC(c2ccccc2)(c2ccccc2)c2ccccc2)c(=O)[nH]1 | 476 | 2.3 | 9.6 | – | 44 | 50 | – | – | –
34 | O=c1ccn([C@H]2C[C@H](O)[C@@H](CNC(c3ccccc3)(c3ccccc3)c3ccccc3)O2)c(=O)[nH]1 | 46 | 4.5 | – | – | 44 | – | – | – | –
35 | O=c1ccn(CCCCCCO)c(=O)[nH]1 | 636 | 19 | > 1000 | – | – | – | – | – | –
36 | O=c1ccn([C@H]2C[C@H](O)[C@@H](COC(c3ccccc3)(c3ccccc3)c3ccccc3)O2)c(=O)[nH]1 | 18 | 6 | – | – | 192 | 10 | – | – | –
37 | O=c1ccn(CCCO[Si](c2ccccc2)(c2ccccc2)c2ccccc2)c(=O)[nH]1 | 25 | 0.58 | 1.6 | – | 70 | 16 | – | – | –
38 | O=c1ccn(CCCCCO[Si](c2ccccc2)(c2ccccc2)c2ccccc2)c(=O)[nH]1 | > 1000 | 0.38 | 3.8 | – | 47 | > 265 | – | – | –
39 | O=c1ccn(CCCCCCO[Si](c2ccccc2)(c2ccccc2)c2ccccc2)c(=O)[nH]1 | 383 | 0.46 | 1.7 | – | 50 | 227 | 35 | – | < 2
40 | O=c1ccn(CCCOC(c2ccccc2)(c2ccccc2)c2ccccc2)c(=O)[nH]1 | 313 | 7.5 | 87 | – | 34 | 4 | – | – | –
41 | O=c1ccn(CCCCCNC(c2ccccc2)(c2ccccc2)c2ccccc2)c(=O)[nH]1 | > 1000 | 2.2 | – | – | 39 | > 233 | – | – | –
